What was measured:
PRMT5 [1] = molecular target: T1, PRMT5 (Homo sapiens, UniProt O14744); assay: PRMT5 IC50 assay in the presence of SAM as cofactor; assay type: biochemical
T1 construct: purchased Viva (custom protein)
In short: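 Human PRMT5 inhibition, IC50 in μM; cofactor varied (SAM / MTA / none).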

HAP1 MTAP-deleted = assay: SDMA in-cell western assay, HAP1 MTAP-deleted cell line; assay type: cell-based; settings: for IC50: Homo sapiens, HAP1 MTAP-deleted cell line; for MTAP Intact/Deleted Ratio: IC50 ratio HAP1 MTAP-intact / HAP1 MTAP-deleted
In short: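 IC50 from SDMA in-cell western; HAP1 line lacking MTAP (null), paired isogenically with MTAP-intact HAP1 expressing endogenous MTAP.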

HAP1 MTAP-intact = assay: SDMA in-cell western assay, HAP1 MTAP-intact cell line; assay type: cell-based; settings: Homo sapiens
In short: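 HAP1 isogenic pair: endogenous MTAP vs MTAP-null. Readout SDMA by in-cell western; IC50 per line. Ratio ≥3 fold = MTAP-selective.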

PRMT5 [2] = molecular target: T1, PRMT5; assay: PRMT5 IC50 assay in the presence of MTA as cofactor; assay type: biochemical; settings: for IC50: PRMT5, MTA as cofactor
In short: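 MTA-dependent versus SAM-dependent inhibition of human PRMT5 was assessed by IC50; conversion factors of 13.5 and 1.5 gave the corresponding Ki.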

PRMT5 [3] = molecular target: T1, PRMT5; assay: PRMT5 IC50 assay with no cofactor; assay type: biochemical
In short: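 Ki conversion: SAM arm, Ki=IC50/1.5; MTA arm, Ki=IC50/13.5. No-cofactor arm reported as IC50 only. Selectivity expressed as Ki(SAM)/Ki(MTA).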

[4] = ratio between the Ki in the presence of SAM and the Ki in the presence of MTA
[5] = ratio between Ki in the presence of SAM and Ki in the presence of MTA

T1 sequence (O14744 whole entry): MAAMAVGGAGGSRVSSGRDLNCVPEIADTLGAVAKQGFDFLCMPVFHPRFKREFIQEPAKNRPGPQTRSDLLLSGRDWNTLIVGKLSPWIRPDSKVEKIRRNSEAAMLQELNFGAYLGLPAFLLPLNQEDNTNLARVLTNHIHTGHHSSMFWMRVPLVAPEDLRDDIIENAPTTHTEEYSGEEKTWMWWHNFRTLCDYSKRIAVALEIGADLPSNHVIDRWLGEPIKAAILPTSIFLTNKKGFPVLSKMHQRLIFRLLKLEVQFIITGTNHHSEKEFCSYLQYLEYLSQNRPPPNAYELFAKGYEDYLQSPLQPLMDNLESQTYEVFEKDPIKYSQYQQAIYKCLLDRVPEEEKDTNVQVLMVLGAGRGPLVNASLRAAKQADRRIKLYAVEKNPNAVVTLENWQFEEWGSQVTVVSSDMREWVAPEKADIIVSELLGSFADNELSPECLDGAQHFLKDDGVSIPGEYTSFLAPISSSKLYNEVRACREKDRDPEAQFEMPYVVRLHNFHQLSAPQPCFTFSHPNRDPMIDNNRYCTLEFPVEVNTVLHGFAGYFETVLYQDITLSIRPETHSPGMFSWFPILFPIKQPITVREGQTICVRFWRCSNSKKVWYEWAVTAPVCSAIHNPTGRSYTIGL
T1 sequence (Q9BQA1 whole entry partner): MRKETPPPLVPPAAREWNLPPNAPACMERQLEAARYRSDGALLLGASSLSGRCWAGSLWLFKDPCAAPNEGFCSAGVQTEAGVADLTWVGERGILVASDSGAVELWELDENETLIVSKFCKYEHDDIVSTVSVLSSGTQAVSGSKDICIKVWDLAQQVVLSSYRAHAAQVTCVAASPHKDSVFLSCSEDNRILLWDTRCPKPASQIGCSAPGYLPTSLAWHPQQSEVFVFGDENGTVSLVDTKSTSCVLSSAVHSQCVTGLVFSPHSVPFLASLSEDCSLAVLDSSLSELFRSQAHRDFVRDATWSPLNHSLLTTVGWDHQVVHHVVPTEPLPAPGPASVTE

| Structure (SMILES) | IC50 (PRMT5 [1]) [nM] | IC50 (HAP1 MTAP-deleted) [nM] | MTAP Intact/Deleted Ratio (HAP1 MTAP-deleted) | IC50 (HAP1 MTAP-intact) [nM] | IC50 (PRMT5 [2]) [nM] | SAM/MTA Ratio (PRMT5 [2]; [4]) | IC50 (PRMT5 [3]) [nM] | SAM/MTA Ratio (PRMT5 [2]; [5]) | IC50 (PRMT5 [3]; read-out: No Co-factor IC50) [nM] |
| --- | --- | --- | --- | --- | --- | --- | --- | --- | --- |
| Cc1ncoc1COc1ccc2c(n1)CCN(C[C@@H](O)CNC(=O)c1ccnc(NC3CCC3)c1)C2 [Compound 467, 2-(cyclobutylamino)-N-[(2S)-2-hydroxy-3-[2-[(4-methyloxazol-5-yl)methoxy]-7,8-dihydro-5H-1,6-naphthyridin-6-yl]propyl]pyridine-4-carboxamide] | 50 to 500 | 1000 to 10000 | C* (an IC50 ratio of less than 3 fold between the IC50 in the HAP1 MTAP-intact cell line and the HAP1 MTAP-deleted cell line) | ≥ 10000 | 50 to 500 | A (a Ki ratio greater than or equal to 10 fold between the Ki in the presence of SAM and the Ki in the presence of MTA) | ≥ 5000 | – | – |
| CCC(=O)N1CCC(Nc2cc(C(=O)NC[C@H](O)CN3CCc4cc(OCc5cnco5)ccc4C3)ccn2)CC1 [Compound 460, N-[(2S)-2-hydroxy-3-[6-(oxazol-5-ylmethoxy)-3,4-dihydro-1H-isoquinolin-2-yl]propyl]-2-[(1-propanoyl-4-piperidyl)amino]pyridine-4-carboxamide] | 50 to 500 | < 1000 | B* (an IC50 ratio greater than or equal to 3 fold but lower than 10 fold between the IC50 in the HAP1 MTAP-intact cell line and the HAP1 MTAP-deleted cell line) | 1000 to 10000 | 50 to 500 | A (a Ki ratio greater than or equal to 10 fold between the Ki in the presence of SAM and the Ki in the presence of MTA) | 500 to 5000 | – | – |
| Cc1ncoc1COc1ccc2c(c1)CCN(C[C@@H](O)CNC(=O)c1ccc(OC3CCOCC3)cc1)C2 [Compound 475, N-[(2S)-2-hydroxy-3-{6-[(4-methyl-1,3-oxazol-5-yl)methoxy]-1,2,3,4-tetrahydroisoquinolin-2-yl}propyl]-4-(oxan-4-yloxy)benzamide] | 500 to 5000 | 1000 to 10000 | C* (an IC50 ratio of less than 3 fold between the IC50 in the HAP1 MTAP-intact cell line and the HAP1 MTAP-deleted cell line) | 1000 to 10000 | 50 to 500 | A (a Ki ratio greater than or equal to 10 fold between the Ki in the presence of SAM and the Ki in the presence of MTA) | ≥ 5000 | – | – |
| CC(=O)N1CC(Nc2cc(C(=O)NC[C@H](O)CN3CCc4cc(OCc5ocnc5C)c(F)cc4C3)nc(N3CCCCC3)n2)C1 [Compound 579, 6-[(1-acetylazetidin-3-yl)amino]-N-[(2S)-3-[7-fluoro-6-[(4-methyloxazol-5-yl)methoxy]-3,4-dihydro-1H-isoquinolin-2-yl]-2-hydroxy-propyl]-2-(1-piperidyl)pyrimidine-4-carboxamide] | 50 to 500 | < 1000 | A* (an IC50 ratio greater than or equal to 10 fold between the IC50 in the HAP1 MTAP-intact cell line and the HAP1 MTAP-deleted cell line) | 1000 to 10000 | 50 to 500 | A (a Ki ratio greater than or equal to 10 fold between the Ki in the presence of SAM and the Ki in the presence of MTA) | 50 to 500 | – | – |
| CC(C)(C)N1CCN(c2cc(C(=O)NC[C@H](O)CN3CCc4cc(OCc5cnco5)ccc4C3)cc(NC3CCC3)n2)CC1 [Compound 306, (S)-2-(4-(tert-butyl)piperazin-1-yl)-6-(cyclobutylamino)-N-(2-hydroxy-3-(6-(oxazol-5-ylmethoxy)-3N-dihydroisoquinolin-2(1H)-yl)propyl)isonicotinamide] | 50 to 500 | ≥ 10000 | C* (an IC50 ratio of less than 3 fold between the IC50 in the HAP1 MTAP-intact cell line and the HAP1 MTAP-deleted cell line) | 1000 to 10000 | 50 to 500 | – | – | A (a Ki ratio greater than or equal to 10 fold between the Ki in the presence of SAM and the Ki in the presence of MTA) | 500 to 5000 |
| Cc1ncoc1COc1ccc2c(c1C)CCN(C[C@@H](O)CNC(=O)c1cc(NC3CCC3)ncn1)C2 [Compound 371, 6-(cyclobutylamino)-N-[(2S)-2-hydroxy-3-{5-methyl-6-[(4-methyl-1,3-oxazol-5-yl)methoxy]-1,2,3,4-tetrahydroisoquinolin-2-yl}propyl]pyrimidine-4-carboxamide] | 500 to 5000 | < 1000 | A* (an IC50 ratio greater than or equal to 10 fold between the IC50 in the HAP1 MTAP-intact cell line and the HAP1 MTAP-deleted cell line) | ≥ 10000 | 50 to 500 | – | – | A (a Ki ratio greater than or equal to 10 fold between the Ki in the presence of SAM and the Ki in the presence of MTA) | ≥ 5000 |
| Cc1ncoc1COc1ccc2c(c1)CCN(C[C@@H](O)CNC(=O)c1cc(NC3CCC3)nc(N3CCN(C(=O)C4CC4)CC3)c1)C2 [Compound 455, 2-(cyclobutylamino)-6-(4-cvclopropanecarbonylpiperazin-1-yl)-N-[(2S)-2-hydroxy-3-{6-[(4-methyl-1,3-oxazol-5-yl)methoxy]-1,2,3,4-tetrahydroisoquinolin-2-yl}propyl]pyridine-4-carboxamide] | 50 to 500 | < 1000 | B* (an IC50 ratio greater than or equal to 3 fold but lower than 10 fold between the IC50 in the HAP1 MTAP-intact cell line and the HAP1 MTAP-deleted cell line) | < 1000 | 50 to 500 | A (a Ki ratio greater than or equal to 10 fold between the Ki in the presence of SAM and the Ki in the presence of MTA) | 50 to 500 | – | – |
| CC(=O)N1CC(Nc2cc(C(=O)NC[C@H](O)CN3CCc4c(ccc(OCc5cnco5)c4Cl)C3)nc(C(C)C)n2)C1 [Compound 342, (S)-6-((1-acetylazetidin-3-yl)amino)-N-(3-(5-chloro-6-(oxazol-5-ylmethoxy)-3,4-dihydroisoquinolin-2(1H)-yl)-2-hydroxypropyl)-2-isopropylpyrimidine-4-carboxamide] | 50 to 500 | < 1000 | A* (an IC50 ratio greater than or equal to 10 fold between the IC50 in the HAP1 MTAP-intact cell line and the HAP1 MTAP-deleted cell line) | ≥ 10000 | 50 to 500 | – | – | A (a Ki ratio greater than or equal to 10 fold between the Ki in the presence of SAM and the Ki in the presence of MTA) | 500 to 5000 |
| Cc1ncoc1COc1ccc2c(c1C)CCN(C[C@@H](O)CNC(=O)c1cc(NC3CCC3)nc(N3CCN(C(=O)C4CC4)CC3)c1)C2 [Compound 411, 2-(cyclobutylamino)-6-(4-cvclopropanecarbonylpiperazin-1-yl)-N-[(2S)-2-hydroxy-3-{5-methyl-6-[(4-methyl-1,3-oxazol-5-yl)methoxy]1,2,3,4-tetrahydroisoquinolin-2-yl}propyl]pyridine-4-carboxamide] | 50 to 500 | < 1000 | A* (an IC50 ratio greater than or equal to 10 fold between the IC50 in the HAP1 MTAP-intact cell line and the HAP1 MTAP-deleted cell line) | ≥ 10000 | 50 to 500 | – | – | A (a Ki ratio greater than or equal to 10 fold between the Ki in the presence of SAM and the Ki in the presence of MTA) | 500 to 5000 |

From patent publication US11986471B2, “Compounds and methods of use” (Tango Therapeutics, Inc., priority 2018, dated 2024)
